Paper PMC8952208, “Synthesis, Antiplasmodial, and Antileukemia Activity of Dihydroartemisinin–HDAC Inhibitor Hybrids as Multitarget Drugs” (Pharmaceuticals, 2022)

Experiments:
human HDAC6 (hHDAC6) = biological target: T1, human HDAC6 (hHDAC6) (Homo sapiens, UniProt Q9UBN7); assay: In vitro human HDAC6 assay (ZMAL substrate); assay type: biochemical; details: for SI 1/6: Selectivity Index = (hHDAC1 IC50)/(hHDAC6 IC50)
T1 construct: purchased BPS Bioscience Inc. 50006
T1 sequence (Q9UBN7 1-1215): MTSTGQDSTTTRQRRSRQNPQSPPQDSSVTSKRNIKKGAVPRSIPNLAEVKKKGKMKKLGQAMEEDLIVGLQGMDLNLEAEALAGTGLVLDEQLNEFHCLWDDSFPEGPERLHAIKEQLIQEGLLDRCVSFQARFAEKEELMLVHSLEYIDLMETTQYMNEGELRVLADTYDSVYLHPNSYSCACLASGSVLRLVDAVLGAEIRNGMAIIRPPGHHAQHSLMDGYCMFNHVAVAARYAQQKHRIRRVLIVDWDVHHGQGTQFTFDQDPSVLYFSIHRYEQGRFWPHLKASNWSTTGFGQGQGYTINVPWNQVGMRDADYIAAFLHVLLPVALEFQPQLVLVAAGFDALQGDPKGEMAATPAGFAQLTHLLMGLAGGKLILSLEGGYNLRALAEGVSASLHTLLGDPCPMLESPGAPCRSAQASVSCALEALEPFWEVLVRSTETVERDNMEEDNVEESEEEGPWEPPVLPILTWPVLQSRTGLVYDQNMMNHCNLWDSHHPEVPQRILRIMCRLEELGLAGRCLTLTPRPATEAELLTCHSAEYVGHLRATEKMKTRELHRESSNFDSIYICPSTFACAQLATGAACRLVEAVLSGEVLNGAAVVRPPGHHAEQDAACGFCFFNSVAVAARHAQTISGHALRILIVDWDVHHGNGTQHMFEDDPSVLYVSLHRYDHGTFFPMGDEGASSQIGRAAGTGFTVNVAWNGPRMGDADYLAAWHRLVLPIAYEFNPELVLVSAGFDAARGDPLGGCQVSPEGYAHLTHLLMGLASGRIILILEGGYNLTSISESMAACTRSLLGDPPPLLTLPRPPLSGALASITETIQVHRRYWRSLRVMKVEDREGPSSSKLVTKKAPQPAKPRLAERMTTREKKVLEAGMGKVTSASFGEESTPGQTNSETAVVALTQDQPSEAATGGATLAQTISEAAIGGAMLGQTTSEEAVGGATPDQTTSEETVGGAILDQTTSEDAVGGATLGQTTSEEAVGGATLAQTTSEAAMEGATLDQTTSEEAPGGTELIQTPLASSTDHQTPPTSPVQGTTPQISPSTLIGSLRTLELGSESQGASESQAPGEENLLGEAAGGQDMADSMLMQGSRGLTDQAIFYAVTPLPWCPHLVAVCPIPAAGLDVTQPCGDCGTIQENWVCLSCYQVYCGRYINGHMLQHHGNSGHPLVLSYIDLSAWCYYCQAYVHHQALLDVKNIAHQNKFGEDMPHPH
Method: OptiPlate-96 black microplates (Perkin Elmer Inc., Waltham, MA, USA) were used with an assay volume of 50 µL. […] After an incubation time of 90 min, 50 µL of 0.4 mg/mL trypsin in trypsin buffer (50 mM Tris-HCl, pH 8.0, and 100 mM NaCl) was added, followed by further incubation at 37 °C for 30 min.

HPBALL cells = assay: CellTiter-Glo cell viability assay, HPBALL; assay type: cell-based, human; details: for IC50: Homo sapiens, HPBALL, T-ALL, 72 h, CellTiter-Glo, n = 3; for Selectivity index range healthy fibroblasts vs HPB ALL: SI = (healthy fibroblast IC50)/(leukemia cell line IC50), range over two fibroblasts
Method: (§1) Healthy individually-derived fibroblasts were cultured in DMEM supplemented with 10% FCS. Regular cell line authentication was performed short tandem repeat (STR) analysis (DNA fingerprinting), followed by comparison with the original DSMZ cell line database.
(§2) Cell viability assay was performed with leukemic cell lines after 72 h incubation with the respective inhibitors using ATP-based CellTiter-Glo luminescent assay (Promega, Madison, WI, USA).

K562 cells = assay: Annexin V-PI staining; assay type: cell-based, human; details: 48 h, 0.4 µM or 0.8 µM
Method: To evaluate the induction of apoptosis upon respective inhibitor treatment, K562 cells were incubated (48 h) with inhibitors (0.4 µM or 0.8 µM) or with vehicle control (DMSO). The induction of apoptosis/necrosis was analyzed by measuring hypodiploid DNA content, mitochondrial potential, and exposure of phosphatidylserine after annexin/propidium iodide (PI) staining kit (BD, Franklin lakes, NJ, USA) using FACS.

[1] = tested on: five leukemia cell lines (K562, HL60, NALM6, HPBALL, MOLM13); assay: CellTiter-Glo cell viability assay, panel of five leukemia cell lines; assay type: cell-based, human; details: for antiproliferative activity compared to DHA: number of the five leukemia cell lines in which DHA is exceeded
Method: as §1, §2

[2] = tested on: acetylation of α-tubulin (marker of HDAC6 inhibition); assay: Immunoblotting, acetyl-α-tubulin in K562 cells; assay type: cell-based, human; details: 0.4 µM, 24 h
Method: (§3) K562 cells were treated with the indicated concentration of the compounds or vehicle control (DMSO) for 24 h. The recovered cell pellets were lysed with RIPA buffer (50 mM Tris-HCl pH 8.0, 1% Triton X-100, 0.5% sodium deoxycholate, 0.1% SDS, 150 mM sodium chloride, and 2 mM EDTA), supplemented with protease and phosphatase inhibitors (Thermofischer Scientific, Waltham, MA, USA). An equal amount of total protein (20 µg) was resolved by SDS-PAGE and followed by transfer on nitrocellulose membrane (Sigma-Aldrich). PageRuler prestained protein ladder, 10 kDa to 180 kDa (Thermofisher Scientific, Waltham, MA, USA) was used as a protein molecular weight marker.

[3] = tested on: acetylation of histone H3 (marker of HDAC1 inhibition); assay: Immunoblotting, acetyl-histone H3 in K562 cells; assay type: cell-based, human; details: 0.4 µM, 24 h
Method: as §3

SMILES: C[C@H]1[C@@H](SCc2ccc(C(=O)NO)cc2)O[C@@H]2O[C@@]3(C)CC[C@H]4[C@H](C)CC[C@@H]1[C@@]24OO3 [(α)-7c, N-Hydroxy-4-((((3R,5aS,6R,8aS,9R,10R,12S,12aR)-3,6,9-trimethyldecahydro-12H-3,12-epoxy[1,2]dioxepino[4,3-i]isochromen-10-yl)thio)methyl)benzamide]
- IC50 (human HDAC6 (hHDAC6)): 0.036 ± 0.008 µM
- SI 1/6 (human HDAC6 (hHDAC6)): 56
- IC50 (HPBALL cells): 6.72 ± 0.44 µM
- Selectivity index range healthy fibroblasts vs HPB ALL (HPBALL cells): 1.1-1.9
- necrosis induction (annexin V/PI) (K562 cells): induced significant necrosis
- antiproliferative activity compared to DHA [1]: all five cell lines

SMILES: C[C@H]1[C@H](SCc2ccc(C(=O)NO)cc2)O[C@@H]2O[C@@]3(C)CC[C@H]4[C@H](C)CC[C@@H]1[C@@]24OO3 [(β)-7c, N-Hydroxy-4-((((3R,5aS,6R,8aS,9R,10S,12S,12aR)-3,6,9-trimethyldecahydro-12H-3,12-epoxy[1,2]dioxepino[4,3-i]isochromen-10-yl)thio)methyl)benzamide]
- IC50 (human HDAC6 (hHDAC6)): 0.041 ± 0.009 µM
- SI 1/6 (human HDAC6 (hHDAC6)): 68
- IC50 (HPBALL cells): 12.3 ± 0.57 µM
- Selectivity index range healthy fibroblasts vs HPB ALL (HPBALL cells): 1.2-1.4
- acetylation of α-tubulin (immunoblot) [2]: induced acetylation of α-tubulin
- acetylation of histone H3 (immunoblot) [3]: did not induce acetylation of histone H3
- apoptosis induction (annexin V/PI) (K562 cells): significantly induced apoptosis as compared to DHA
- antiproliferative activity compared to DHA [1]: outperforming DHA in four out of five

SMILES: C[C@@H]1CC[C@H]2[C@@H](C)C(OCc3ccc(/C=C/C(=O)NO)cc3)O[C@@H]3O[C@@]4(C)CC[C@@H]1[C@]32OO4 (stereo partly drawn) [Compound 7a, (E)-N-Hydroxy-3-(4-((((3R,5aS,6R,8aS,9R,12R,12aR)-3,6,9-trimethyldecahydro-12H-3,12-epoxy[1,2]dioxepino[4,3-i]isochromen-10-yl)oxy)methyl)phenyl)acrylamide]
- IC50 (human HDAC6 (hHDAC6)): 0.187 ± 0.004 µM
- SI 1/6 (human HDAC6 (hHDAC6)): 3
- IC50 (HPBALL cells): 1.36 ± 0.03 µM
- Selectivity index range healthy fibroblasts vs HPB ALL (HPBALL cells): 5-10
- apoptosis induction (annexin V/PI) (K562 cells): significantly induced apoptosis as compared to DHA
- IC50 ([1]; Homo sapiens, range over K562, HL60, NALM6, HPBALL, MOLM13, read-out: IC50 values across the five leukemia cell lines): 0.15 to 1.36 µM
- selectivity indices (SI) fibroblasts over leukemia cells, highest ([1]; highest SI across leukemia cell lines and fibroblasts): up to 87
- antiproliferative activity compared to DHA [1]: all five cell lines

SMILES: C[C@H]1[C@@H](O)O[C@@H]2O[C@@]3(C)CC[C@H]4[C@H](C)CC[C@@H]1[C@@]24OO3 [DHA, dihydroartemisinin]
- IC50 (human HDAC6 (hHDAC6)): > 10 µM
- IC50 (HPBALL cells): 9.93 ± 1.51 µM
- acetylation of α-tubulin (immunoblot) [2]: affected the acetylation level neither of α-tubulin nor of histone H3
- acetylation of histone H3 (immunoblot) [3]: affected the acetylation level neither of α-tubulin nor of histone H3
